± gives the expanded uncertainty stated by the source.
Assay: mn = molality of the nth substance listed, in mol/kg
Settings: 101 kPa, Liquid; for viscosity: Capillary tube (Ostwald / Ubbelohde) method; for mass density: Vibrating tube method

## Cc1ccc(N)cc1N [4-methyl-1,3-benzendiamine] + CCCO
293.15 K, m1 = 0.05
  viscosity: 2.189 ± 0.014 mPa·s
  mass density: 805.47 ± 0.17 kg/m3
293.15 K, m1 = 0.1003
  viscosity: 2.206 ± 0.015 mPa·s
  mass density: 807.05 ± 0.17 kg/m3
293.15 K, m1 = 0.15
  viscosity: 2.225 ± 0.015 mPa·s
  mass density: 808.57 ± 0.17 kg/m3
293.15 K, m1 = 0.1997
  viscosity: 2.247 ± 0.015 mPa·s
  mass density: 810.04 ± 0.17 kg/m3
293.15 K, m1 = 0.2499
  viscosity: 2.267 ± 0.015 mPa·s
  mass density: 811.49 ± 0.17 kg/m3
293.15 K, m1 = 0.2999
  viscosity: 2.294 ± 0.015 mPa·s
  mass density: 812.87 ± 0.17 kg/m3
293.15 K, m1 = 0.3496
  viscosity: 2.315 ± 0.015 mPa·s
  mass density: 814.24 ± 0.17 kg/m3
293.15 K, m1 = 0.3994
  viscosity: 2.338 ± 0.015 mPa·s
  mass density: 815.57 ± 0.17 kg/m3
303.15 K, m1 = 0.05
  viscosity: 1.71 ± 0.012 mPa·s
  mass density: 797.13 ± 0.17 kg/m3
303.15 K, m1 = 0.1003
  viscosity: 1.723 ± 0.012 mPa·s
  mass density: 798.71 ± 0.17 kg/m3
303.15 K, m1 = 0.15
  viscosity: 1.735 ± 0.012 mPa·s
  mass density: 800.22 ± 0.17 kg/m3
303.15 K, m1 = 0.1997
  viscosity: 1.748 ± 0.012 mPa·s
  mass density: 801.7 ± 0.17 kg/m3
303.15 K, m1 = 0.2499
  viscosity: 1.759 ± 0.012 mPa·s
  mass density: 803.17 ± 0.17 kg/m3
303.15 K, m1 = 0.2999
  viscosity: 1.774 ± 0.012 mPa·s
  mass density: 804.6 ± 0.17 kg/m3
303.15 K, m1 = 0.3496
  viscosity: 1.79 ± 0.012 mPa·s
  mass density: 805.98 ± 0.17 kg/m3
303.15 K, m1 = 0.3994
  viscosity: 1.806 ± 0.012 mPa·s
  mass density: 807.34 ± 0.17 kg/m3
313.15 K, m1 = 0.05
  viscosity: 1.348 ± 0.009 mPa·s
  mass density: 788.94 ± 0.17 kg/m3
313.15 K, m1 = 0.1003
  viscosity: 1.354 ± 0.009 mPa·s
  mass density: 790.49 ± 0.17 kg/m3
313.15 K, m1 = 0.15
  viscosity: 1.365 ± 0.009 mPa·s
  mass density: 792.01 ± 0.17 kg/m3
313.15 K, m1 = 0.1997
  viscosity: 1.372 ± 0.009 mPa·s
  mass density: 793.49 ± 0.17 kg/m3
313.15 K, m1 = 0.2499
  viscosity: 1.382 ± 0.01 mPa·s
  mass density: 794.96 ± 0.17 kg/m3
313.15 K, m1 = 0.2999
  viscosity: 1.389 ± 0.01 mPa·s
  mass density: 796.4 ± 0.17 kg/m3
313.15 K, m1 = 0.3496
  viscosity: 1.401 ± 0.01 mPa·s
  mass density: 797.83 ± 0.17 kg/m3
313.15 K, m1 = 0.3994
  viscosity: 1.412 ± 0.01 mPa·s
  mass density: 799.22 ± 0.17 kg/m3
323.15 K, m1 = 0.05
  viscosity: 1.074 ± 0.008 mPa·s
  mass density: 780.57 ± 0.17 kg/m3
323.15 K, m1 = 0.1003
  viscosity: 1.079 ± 0.008 mPa·s
  mass density: 782.12 ± 0.17 kg/m3
323.15 K, m1 = 0.15
  viscosity: 1.086 ± 0.008 mPa·s
  mass density: 783.62 ± 0.17 kg/m3
323.15 K, m1 = 0.1997
  viscosity: 1.091 ± 0.008 mPa·s
  mass density: 785.09 ± 0.17 kg/m3
323.15 K, m1 = 0.2499
  viscosity: 1.099 ± 0.008 mPa·s
  mass density: 786.55 ± 0.17 kg/m3
323.15 K, m1 = 0.2999
  viscosity: 1.106 ± 0.008 mPa·s
  mass density: 787.99 ± 0.17 kg/m3
323.15 K, m1 = 0.3496
  viscosity: 1.112 ± 0.008 mPa·s
  mass density: 789.4 ± 0.17 kg/m3
323.15 K, m1 = 0.3994
  viscosity: 1.117 ± 0.008 mPa·s
  mass density: 790.77 ± 0.17 kg/m3
333.15 K, m1 = 0.05
  viscosity: 0.864 ± 0.006 mPa·s
  mass density: 771.96 ± 0.18 kg/m3
333.15 K, m1 = 0.1003
  viscosity: 0.868 ± 0.006 mPa·s
  mass density: 773.5 ± 0.18 kg/m3
333.15 K, m1 = 0.15
  viscosity: 0.875 ± 0.006 mPa·s
  mass density: 774.99 ± 0.18 kg/m3
333.15 K, m1 = 0.1997
  viscosity: 0.878 ± 0.006 mPa·s
  mass density: 776.45 ± 0.18 kg/m3
333.15 K, m1 = 0.2499
  viscosity: 0.883 ± 0.006 mPa·s
  mass density: 777.91 ± 0.18 kg/m3
333.15 K, m1 = 0.2999
  viscosity: 0.889 ± 0.006 mPa·s
  mass density: 779.34 ± 0.18 kg/m3
333.15 K, m1 = 0.3496
  viscosity: 0.893 ± 0.006 mPa·s
  mass density: 780.74 ± 0.17 kg/m3
333.15 K, m1 = 0.3994
  viscosity: 0.899 ± 0.006 mPa·s
  mass density: 782.12 ± 0.17 kg/m3
